Assay [1] concerns AT11 (DNA, G4) TGGTGGTGGTTGTTGTGGTGGTGGTGGT
Briefly: 1H NMR titration. The following applies: 70 mM KCl, 20 mM potassium phosphate; pH 7.0, 90%/10% H2O/D2O; 3'-end G-quartet preferred.

For assay [2] the test system is unchanged. The assay is described as follows: fluorescence titration (ligand intrinsic emission). The following applies: 70 mM KCl, 20 mM potassium phosphate; for K d: per site.
Assay [3] has the same test system. Briefly: CD melting at 262 nm. The following applies: 70 mM KCl, 20 mM potassium phosphate, pH 7.0, 2 μM DNA, 20 μM ligand.
For assay [4] the test system is unchanged. Briefly: 1H NMR titration, NOESY. The following applies: 70 mM KCl, 20 mM potassium phosphate; pH 7.0, 90%/10% H2O/D2O, DMSO up to 3%.

The record followed here is publication PMC12794142 (2025).

On to `COc1ccc2c(c1O)-c1c3c(cc4c1[C@H](C2)N(C)CC4)OCO3`, for which the binding result in assay [1] is reported as “yes”. This compound came in with a K d in assay [2] (pH 7.0, 20 °C, 2 μM ligand, average over multiple binding events) of 1.7 ± 0.3 µM. The ΔT m result in assay [3] is “+1 °C”.

Consider `CN1Cc2c(ccc3c2OCO3)[C@@H]2[C@H]1c1cc3c(cc1C[C@@H]2O)OCO3`, for which the binding entry is on record as “yes” in assay [2] (pH 7.0, 20 °C, 2 μM ligand, alternating trend, not fittable) and “yes” in assay [4]. In assay [3], the ΔT m result was “+1 °C”.

Take `COc1cc2c(cc1OC)-c1c3c(cc4c1[C@H](C2)N(C)CC4)OCO3`: in assay [2] (pH 7.0, 20 °C, 2 μM ligand), the K d came out at 1.0 ± 0.7 µM. Further, the binding entry in assay [4] is “yes”. Moreover, the ΔT m entry in assay [3] (additional inflection at 87 °C) is “+3 °C”.

As for `CC[C@H]1C[C@@H]2C[C@H]3c4[nH]c5ccc(OC)cc5c4CCN(C2)[C@@H]13`, in assay [2], the K d was 2.0 ± 0.4 µM. The binding result in assay [4] is “yes”. For the same compound, the ΔT m entry in assay [3] was “+1 °C”.
